# Columns and labels:
# [1] = tested on: skin reddening symptoms of Rosacea and other facial skin disorders; conditions: topical applications in a cosmetic lotion, applied as needed
# Source text: For example, using step 106 alone. Further embodiments of the present invention therefore comprise phenyl-epinephrine cosmetic skin lotion. The skin lotion is applied as needed by the user, e.g., just before going out in public.
# [2] = tested on: non-mucous membrane skin tissues; conditions: topical application; phenyl-epinephrine strength of at least one percent; water-based gel
# Source text: The topical applications of phenyl-epinephrine used in steps 104, 106, and 108, can include the use of a skin lotion comprising phenyl-epinephrine in solution with a strength sufficient for transdermal absorption by non-mucous membrane skin tissues. Such phenyl-epinephrine is the only active ingredient, and it is preferably compounded with a water-based gel. Such gel provides for holding the phenyl-epinephrine in contact with a user's skin for a minimal residence time sufficient to induce vasoconstriction.
smiles,measurement,setting,value
CNC[C@H](O)c1cccc(O)c1 [phenyl-epinephrine],relief of skin reddening symptoms,[1],temporary relief of skin reddening symptoms
same,vasoconstriction,[2],produced the desired vasoconstriction

# Reference: patent US20050256204A1, “Topical phenyl-epinephrine Rosacea treatment” (priority 2004, published 2005)
